# Assay results reported in ChEMBL document CHEMBL1201862, “PubChem BioAssay data set” (2004).
#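 The compound was tested at five concentrations on cells cultured in 96-well plates, with a 48-hour exposure period. GI50 is the concentration that inhibits growth by half.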 Activity calls are given as the source filed them. Cut-off read from the data, not from the text of the source: active = GI50 up to about 1.1 µM and inactive = higher.
# Tests used:
# Assay in all cases: NCI-60 cell line screen, 48 h
# M19-MEL = system: M19-MEL
# LOX IMVI = system: LOX IMVI
# OVCAR-5 = system: OVCAR-5
# NCI-H460 = system: NCI-H460
# SK-OV-3 = system: SK-OV-3
# NCI-H226 = system: NCI-H226
# SF-295 = system: SF-295
# UACC-62 = system: UACC-62
# DLD-1 = system: DLD-1
# OVCAR-8 = system: OVCAR-8
# SNB-78 = system: SNB-78
# HL-60 = system: HL-60
# MOLT-4 = system: MOLT-4
# KM12 = system: KM12
# 786-0 = system: 786-0
# SNB-19 = system: SNB-19
# HCC 2998 = system: HCC 2998
# NCI-H522 = system: NCI-H522
# ACHN = system: ACHN
# SNB-75 = system: SNB-75
# Malme-3M = system: Malme-3M
# SK-MEL-28 = system: SK-MEL-28
# U-251 = system: U-251
# OVCAR-4 = system: OVCAR-4
# LXFL 529 = system: LXFL 529
# HOP-92 = system: HOP-92
# HCT-15 = system: HCT-15
# IGROV-1 = system: IGROV-1
# COLO 205 = system: COLO 205
# SN12C = system: SN12C
# SK-MEL-5 = system: SK-MEL-5
# CCRF-CEM = system: CCRF-CEM
# XF498 = system: XF498
# HCT-116 = system: HCT-116
# EKVX = system: EKVX
# CAKI-1 = system: CAKI-1
# SW-620 = system: SW-620
# OVCAR-3 = system: OVCAR-3
# KM-20L2 = system: KM-20L2
# TK-10 = system: TK-10
# M14 = system: M14
# UACC-257 = system: UACC-257
# HOP-62 = system: HOP-62
# DMS-114 = system: DMS-114
# RXF 393 = system: RXF 393
# SF-539 = system: SF-539
# SK-MEL-2 = system: SK-MEL-2
# K562 = system: K562
# A498 = system: A498
# HOP-18 = system: HOP-18
# HT-29 = system: HT-29
# DMS-273 = system: DMS-273
# NCI-H23 = system: NCI-H23
# UO-31 = system: UO-31
# SF-268 = system: SF-268
# A549 = system: A549
# NCI/ADR-RES = system: NCI/ADR-RES
# RPMI-8226 = system: RPMI-8226
# MCF7 = system: MCF7
# SR = system: SR
smiles,measurement,setting,value
CN(C)CCOc1cccc2c1C(=O)c1ccccc1C2=O,GI50,M19-MEL,5.65 µM (inactive)
same,GI50,LOX IMVI,5.75 µM (inactive)
same,GI50,OVCAR-5,16.5 µM (inactive)
same,GI50,NCI-H460,5.36 µM (inactive)
same,GI50,SK-OV-3,20.4 µM (inactive)
same,GI50,NCI-H226,9.95 µM (inactive)
same,GI50,SF-295,15.1 µM (inactive)
same,GI50,UACC-62,16.3 µM (inactive)
same,GI50,DLD-1,8.34 µM (inactive)
same,GI50,OVCAR-8,9.48 µM (inactive)
same,GI50,SNB-78,13.6 µM (inactive)
same,GI50,HL-60,12.1 µM (inactive)
same,GI50,MOLT-4,3.45 µM (inactive)
same,GI50,KM12,10.8 µM (inactive)
same,GI50,786-0,17.6 µM (inactive)
same,GI50,SNB-19,18.2 µM (inactive)
same,GI50,HCC 2998,13.9 µM (inactive)
same,GI50,NCI-H522,6.52 µM (inactive)
same,GI50,ACHN,12 µM (inactive)
same,GI50,SNB-75,14.9 µM (inactive)
same,GI50,Malme-3M,13.6 µM (inactive)
same,GI50,SK-MEL-28,15.3 µM (inactive)
same,GI50,U-251,17.4 µM (inactive)
same,GI50,OVCAR-4,6.14 µM (inactive)
same,GI50,LXFL 529,12.1 µM (inactive)
same,GI50,HOP-92,11.8 µM (inactive)
same,GI50,HCT-15,12.2 µM
same,GI50,IGROV-1,16.5 µM (inactive)
same,GI50,COLO 205,4.38 µM (inactive)
same,GI50,SN12C,9.06 µM (inactive)
same,GI50,SK-MEL-5,12.8 µM (inactive)
same,GI50,CCRF-CEM,11.4 µM (inactive)
same,GI50,XF498,18.7 µM (inactive)
same,GI50,HCT-116,4.58 µM (inactive)
same,GI50,EKVX,18.4 µM (inactive)
same,GI50,CAKI-1,14.7 µM (inactive)
same,GI50,SW-620,8.32 µM (inactive)
same,GI50,OVCAR-3,17.9 µM (inactive)
same,GI50,KM-20L2,13.9 µM (inactive)
same,GI50,TK-10,17.3 µM (inactive)
same,GI50,M14,13.5 µM (inactive)
same,GI50,UACC-257,13.1 µM (inactive)
same,GI50,HOP-62,13.6 µM (inactive)
same,GI50,DMS-114,10.4 µM (inactive)
same,GI50,RXF 393,13.8 µM (inactive)
same,GI50,SF-539,10.4 µM (inactive)
same,GI50,SK-MEL-2,14.2 µM (inactive)
same,GI50,K562,11.1 µM (inactive)
same,GI50,A498,18.1 µM (inactive)
same,GI50,HOP-18,16 µM (inactive)
same,GI50,HT-29,6.37 µM (inactive)
same,GI50,DMS-273,10.1 µM (inactive)
same,GI50,NCI-H23,11.8 µM (inactive)
same,GI50,UO-31,4.52 µM (inactive)
same,GI50,SF-268,9.79 µM (inactive)
same,GI50,A549,13.7 µM (inactive)
CCOC(=O)c1c(C)c2c(n1C)CCc1c[nH]nc1-2,GI50,M19-MEL,> 100 µM (inactive)
same,GI50,LOX IMVI,> 100 µM (inactive)
same,GI50,OVCAR-5,99.1 µM (inactive)
same,GI50,NCI-H460,> 100 µM (inactive)
same,GI50,SK-OV-3,> 100 µM (inactive)
same,GI50,NCI-H226,> 100 µM (inactive)
same,GI50,SF-295,> 100 µM (inactive)
same,GI50,UACC-62,> 100 µM (inactive)
same,GI50,DLD-1,> 100 µM (inactive)
same,GI50,OVCAR-8,> 100 µM (inactive)
same,GI50,SNB-78,> 100 µM (inactive)
same,GI50,HL-60,> 100 µM (inactive)
same,GI50,MOLT-4,> 100 µM (inactive)
same,GI50,KM12,> 100 µM (inactive)
same,GI50,SNB-19,> 64.6 µM (inactive)
same,GI50,HCC 2998,> 100 µM (inactive)
same,GI50,NCI/ADR-RES,> 100 µM (inactive)
same,GI50,NCI-H522,> 100 µM (inactive)
same,GI50,SNB-75,> 100 µM (inactive)
same,GI50,Malme-3M,> 100 µM (inactive)
same,GI50,SK-MEL-28,> 100 µM (inactive)
same,GI50,U-251,> 100 µM (inactive)
same,GI50,OVCAR-4,> 100 µM (inactive)
same,GI50,RPMI-8226,> 100 µM (inactive)
same,GI50,HOP-92,> 100 µM (inactive)
same,GI50,MCF7,> 100 µM (inactive)
same,GI50,HCT-15,> 100 µM
same,GI50,IGROV-1,> 100 µM (inactive)
same,GI50,COLO 205,> 100 µM (inactive)
same,GI50,SN12C,> 100 µM (inactive)
same,GI50,SK-MEL-5,> 100 µM (inactive)
same,GI50,CCRF-CEM,> 100 µM (inactive)
same,GI50,XF498,> 100 µM (inactive)
same,GI50,HCT-116,> 100 µM (inactive)
same,GI50,EKVX,18 µM (inactive)
same,GI50,CAKI-1,> 100 µM (inactive)
same,GI50,SW-620,> 100 µM (inactive)
same,GI50,OVCAR-3,> 100 µM (inactive)
same,GI50,KM-20L2,> 100 µM (inactive)
same,GI50,UACC-257,> 100 µM (inactive)
same,GI50,HOP-62,> 100 µM (inactive)
same,GI50,DMS-114,> 100 µM (inactive)
same,GI50,RXF 393,> 100 µM (inactive)
same,GI50,SF-539,> 100 µM (inactive)
same,GI50,SK-MEL-2,> 100 µM (inactive)
same,GI50,K562,> 100 µM (inactive)
same,GI50,A498,> 100 µM (inactive)
same,GI50,HOP-18,> 100 µM (inactive)
same,GI50,HT-29,> 100 µM (inactive)
same,GI50,DMS-273,> 100 µM (inactive)
same,GI50,NCI-H23,> 100 µM (inactive)
same,GI50,UO-31,> 100 µM (inactive)
same,GI50,SF-268,> 100 µM (inactive)
same,GI50,A549,> 100 µM (inactive)
COc1cc(/C=C/C(=O)c2cccc3ccccc23)cc(OC)c1OC,GI50,M19-MEL,7.33 µM (inactive)
same,GI50,LOX IMVI,3.03 µM (inactive)
same,GI50,OVCAR-5,14.2 µM (inactive)
same,GI50,NCI-H460,3.78 µM (inactive)
same,GI50,SK-OV-3,15.2 µM (inactive)
same,GI50,NCI-H226,15.3 µM (inactive)
same,GI50,SF-295,10.1 µM (inactive)
same,GI50,UACC-62,6.71 µM (inactive)
same,GI50,DLD-1,3.85 µM (inactive)
same,GI50,OVCAR-8,1.98 µM (inactive)
same,GI50,SNB-78,3.44 µM (inactive)
same,GI50,SR,3.13 µM (inactive)
same,GI50,HL-60,1.72 µM (inactive)
same,GI50,MOLT-4,3.44 µM (inactive)
same,GI50,KM12,4.06 µM (inactive)
same,GI50,786-0,4.49 µM (inactive)
same,GI50,SNB-19,13.4 µM (inactive)
same,GI50,HCC 2998,15 µM (inactive)
same,GI50,NCI-H522,4.68 µM (inactive)
same,GI50,ACHN,12 µM (inactive)
same,GI50,SNB-75,10.3 µM (inactive)
same,GI50,Malme-3M,11.4 µM (inactive)
same,GI50,SK-MEL-28,6.24 µM (inactive)
same,GI50,U-251,6.41 µM (inactive)
same,GI50,OVCAR-4,6.41 µM (inactive)
same,GI50,LXFL 529,2.73 µM (inactive)
same,GI50,IGROV-1,15.4 µM (inactive)
same,GI50,SN12C,3.39 µM (inactive)
same,GI50,SK-MEL-5,10.4 µM (inactive)
same,GI50,CCRF-CEM,2.56 µM (inactive)
same,GI50,XF498,7.74 µM (inactive)
same,GI50,HCT-116,3.82 µM (inactive)
same,GI50,EKVX,15 µM (inactive)
same,GI50,CAKI-1,7.5 µM (inactive)
same,GI50,SW-620,2.75 µM (inactive)
same,GI50,OVCAR-3,12.8 µM (inactive)
same,GI50,KM-20L2,3.94 µM (inactive)
same,GI50,TK-10,14.2 µM (inactive)
same,GI50,M14,5.93 µM (inactive)
same,GI50,UACC-257,6.37 µM (inactive)
same,GI50,HOP-62,6.82 µM (inactive)
same,GI50,RXF 393,2.33 µM (inactive)
same,GI50,SK-MEL-2,3.46 µM (inactive)
same,GI50,K562,3.02 µM (inactive)
same,GI50,A498,2.82 µM (inactive)
same,GI50,HOP-18,12.4 µM (inactive)
same,GI50,HT-29,4.27 µM (inactive)
same,GI50,DMS-273,3.59 µM (inactive)
same,GI50,NCI-H23,5.32 µM (inactive)
same,GI50,UO-31,16.8 µM (inactive)
same,GI50,SF-268,4.74 µM (inactive)
same,GI50,A549,8.18 µM (inactive)
